Tested on: anti-EDDP antibody
Experiment: Assay for EDDP analyte: homogeneous enzyme immunoassay with G6PDH-product of Step 14-SH-Step 14 conjugate, absorbance at 340 nm
Assay type: binding
Conditions: 1 min after enzyme conjugate addition, Tris buffer pH 7.8
Method: The experiments were conducted on an AGILENT® 8453 UV spectrophotometer (Agilent Technologies, Santa Clara Calif.). Typically, 2.5 mL Tris buffer (50 mM, containing 3.3 mM MgCl2, pH 7.8), 0.2 ml anti-EDDP antibody (1 mg/mL, commercially available from Lin Zhi International Inc. Sunnyvale Calif.), 0.1 mL glucose-6-phosphate (0.1 M), 0.1 mL NADP (0.006M) were taken in a quartz cuvette. To this, 0-4029 ng/mL EDDP in 10 μL methanol was added and mixed well. Then, 10 μL G6PDH-product of Step 14-SH-Step 14 (1 mg/mL) was added and mixed well. Increase in the absorbance at 340 nm was monitored at 1 min after the enzyme addition.

For `CC=C1N(C)C(C)CC1(c1ccccc1)c1ccccc1` (stereo not drawn) [EDDP, 2-ethylidene-1,5-dimethyl-3,3-diphenylpyrrolidine], the “mAu 340 nm (increase in the absorbance at 340 nm)” value (EDDP 370 ng/mL) was 456 mAu, the “mAu 340 nm (increase in the absorbance at 340 nm)” value (EDDP 1221 ng/mL) was 497 mAu and the “mAu 340 nm (increase in the absorbance at 340 nm)” value (EDDP 4029 ng/mL) was 561 mAu.

— patent US9777069B2, “Compositions and methods for detection of methadone metabolite” (Siemens Healthcare Diagnostics Inc., priority 2012, dated 2017)
